Data from patent publication US8039466B2, “5-hydroxymethyl-oxazolidin-2-one antibacterials” (Actelion Pharmaceutical Ltd., priority 2006, dated 2011).
Values after ≈ are worked out from the molar mass of the structure shown. Where two headings read alike, the source gives them in different places. Blank lines part the entries; values can stand above or below the molecule they belong to.

Columns and labels:
Assay in all cases: MIC by microdilution in cation-adjusted Mueller-Hinton Broth (NCCLS)
Assay type in all cases: cell-based
S. Pneumoniae 49619 = settings: Streptococcus pneumoniae
Procedure: (§1) These assays have been performed following the description given in “Methods for dilution Antimicrobial Susceptibility Tests for Bacteria that Grow Aerobically, 4th ed.; Approved standard: NCCLS Document M7-A4; National Committee for Clinical Laboratory Standards Villanova, Pa., USA, 1997”. Minimal inhibitory concentrations (MICs; mg/l) were determined in cation-adjusted Mueller-Hinton Broth (BBL) by a microdilution method following NCCLS guidelines (National Committee for Clinical Laboratory Standards. Methods for Dilution Antimicrobial Susceptibility). The pH of the test medium was 7.2-7.3. All the above Examples were tested against several Gram positive and Gram negative bacteria.

M. catarrhalis A894 = settings: Moraxella catarrhalis, pH of test medium 7.2-7.3
Procedure: as §1

S. aureus A798 = settings: Staphylococcus aureus
Procedure: as §1

[1] = pH of test medium 7.2-7.3, read-out: MIC S. Pneumoniae 49619
[2] = A798, pH of test medium 7.2-7.3, read-out: MIC S. aureus A798

SMILES: O=C(O)c1c[nH]c2c3c(c(F)cc2c1=O)N1C[C@](O)(COc2ccc(N4C[C@H](CO)OC4=O)cc2F)C[C@H]1CO3 [Example 9, (13S,16S)-7-fluoro-16-[2-fluoro-4-((R)-5-hydroxymethyl-2-oxo-oxazolidin-3-yl)-phenoxymethyl]-16-hydroxy-4-oxo-1,4,13,15,16,17-hexahydro-12H-11-oxa-1,14-diaza-cyclopenta[a]phenanthrene-3-carboxylic acid]
MIC (S. Pneumoniae 49619; [1]): 0.25 µg/mL (≈ 0.447 µM)

SMILES: O=C(O)c1cn(C2CC2)c2c3c(c(F)cc2c1=O)N1CCC(O)(COc2ccc(N4C[C@H](CO)OC4=O)cc2F)C[C@H]1CO3 (mixture of isomers) [Example 6, (6aS,8RS)-4-cyclopropyl-11-fluoro-8-[2-fluoro-4-((R)-5-hydroxymethyl-2-oxo-oxazolidin-3-yl)-phenoxymethyl]-8-hydroxy-1-oxo-1,4,6,6a,7,8,9,10-octahydro-5-oxa-4,10a-diaza-chrysene-2-carboxylic acid]
MIC (M. catarrhalis A894): 0.5 µg/mL
MIC (S. Pneumoniae 49619; [1]): 0.25 µg/mL
MIC (S. aureus A798; [2]): 0.5 µg/mL

SMILES: C[C@@H](N)C(=O)OC[C@H]1CN(c2ccc(OC[C@]3(O)C[C@H]4COc5c(c(F)cc6c(=O)c(C(=O)O)cn(C7CC7)c56)N4C3)c(F)c2)C(=O)O1 [Example 2, (13S,16S)-16-{4-[(R)-5-((R)-2-amino-propionyloxymethyl)-2-oxo-oxazolidin-3-yl]-2-fluoro-phenoxymethyl}-1-cyclopropyl-7-fluoro-16-hydroxy-4-oxo-1,4,13,15,16,17-hexahydro-12H-11-oxa-1,14-diaza-cyclopenta[a]phenanthrene-3-carboxylic acid]
MIC (S. Pneumoniae 49619; [1]): 0.125 µg/mL (≈ 0.186 µM)

SMILES: O=C(O)c1cn(C2CC2)c2c3c(c(F)cc2c1=O)N1C[C@](O)(COc2ccc(N4C[C@H](CO)OC4=O)cc2F)C[C@H]1CO3 [Example 1, (13S,16S)-1-cyclopropyl-7-fluoro-16-[2-fluoro-4-((R)-5-hydroxymethyl-2-oxo-oxazolidin-3-yl)-phenoxymethyl]-16-hydroxy-4-oxo-1,4,13,15,16,17-hexahydro-12H-11-oxa-1,14-diaza-cyclopenta[a]phenanthrene-3-carboxylic acid]
MIC (S. Pneumoniae 49619; [1]): ≤ 0.063 µg/mL

SMILES: O=C(O)c1cn(C2CC2)c2c3c(c(F)cc2c1=O)N1C[C@@](COc2ccc(N4C[C@H](CO)OC4=O)cc2F)(OP(=O)(O)O)C[C@H]1CO3 [Example 8, (13S,16S)-1-cyclopropyl-7-fluoro-16-[2-fluoro-4-((R)-5-hydroxymethyl-2-oxo-oxazolidin-3-yl)-phenoxymethyl]-4-oxo-16-phosphonooxy-1,4,13,15,16,17-hexahydro-12H-11-oxa-1,14-diaza-cyclopenta[a]phenanthrene-3-carboxylic acid]
MIC (S. aureus A798; A798, in the presence of human alkaline phosphatase, read-out: MIC against S. aureus A798): 0.25 µg/mL
MIC (S. aureus A798; A798, phosphatase absent, read-out: MIC against S. aureus A798): 4 µg/mL (≈ 5.89 µM)

Second part, the molecule after the results:

MIC (S. Pneumoniae 49619; [1]): 0.25 µg/mL
SMILES: O=C(O)c1cn(C2CC2)c2c3c(c(F)cc2c1=O)N1CCC(O)(COc2ccc(N4C[C@H](CO)OC4=O)cc2F)C[C@@H]1CO3 (mixture of isomers) [Example 7, (6aR,8RS)-4-cyclopropyl-11-fluoro-8-[2-fluoro-4-((R)-5-hydroxymethyl-2-oxo-oxazolidin-3-yl)-phenoxymethyl]-8-hydroxy-1-oxo-1,4,6,6a,7,8,9,10-octahydro-5-oxa-4,10a-diaza-chrysene-2-carboxylic acid]

MIC (S. Pneumoniae 49619; [1]): 0.25 µg/mL (≈ 0.428 µM)
SMILES: O=C(O)c1cn(C2CC2)c2c3c(c(F)cc2c1=O)N1C[C@H](COc2ccc(N4C[C@H](CO)OC4=O)cc2F)C[C@H]1CO3 [Example 4, (13S,16R)-1-cyclopropyl-7-fluoro-16-[2-fluoro-4-((R)-5-hydroxymethyl-2-oxo-oxazolidin-3-yl)-phenoxymethyl]-4-oxo-1,4,13,15,16,17-hexahydro-12H-11-oxa-1,14-diaza-cyclopenta[a]phenanthrene-3-carboxylic acid]

MIC (S. Pneumoniae 49619; in the absence of human serum, read-out: MIC against S. Pneumoniae 49619): ≤ 0.063 µg/mL
SMILES: C[C@H](N)C(=O)OC[C@H]1CN(c2ccc(OC[C@]3(O)C[C@H]4COc5c(c(F)cc6c(=O)c(C(=O)O)cn(C7CC7)c56)N4C3)c(F)c2)C(=O)O1.Cl [Example 11, (13S,16S)-16-{4-[(R)-5-((S)-2-amino-propionyloxymethyl)-2-oxo-oxazolidin-3-yl]-2-fluoro-phenoxymethyl}-1-cyclopropyl-7-fluoro-16-hydroxy-4-oxo-1,4,13,15,16,17-hexahydro-12H-11-oxa-1,14-diaza-cyclopenta[a]phenanthrene-3-carboxylic acid hydrochloride]

MIC (S. aureus A798; A798, human serum absent, read-out: MIC against S. aureus A798): 8 µg/mL (≈ 11.3 µM)
MIC (S. aureus A798; A798, in the presence of human serum, read-out: MIC against S. aureus A798): 2 µg/mL
SMILES: O=C(O)c1cn(C2CC2)c2c3c(c(F)cc2c1=O)N1C[C@](O)(COc2ccc(N4C[C@H](COC(=O)C5CCNCC5)OC4=O)cc2F)C[C@H]1CO3 [Example 12, (13S,16S)-1-cyclopropyl-7-fluoro-16-{2-fluoro-4-[(R)-2-oxo-5-(piperidine-4-carbonyloxymethyl)-oxazolidin-3-yl]-phenoxymethyl}-16-hydroxy-4-oxo-1,4,13,15,16,17-hexahydro-12H-11-oxa-1,14-diaza-cyclopenta[a]phenanthrene-3-carboxylic acid]

MIC (M. catarrhalis A894): 0.125 µg/mL (≈ 0.213 µM)
MIC (S. Pneumoniae 49619; [1]): 0.25 µg/mL (≈ 0.426 µM)
MIC (S. aureus A798; [2]): 0.5 µg/mL (≈ 0.851 µM)
SMILES: CCn1cc(C(=O)O)c(=O)c2cc(F)c3c(c21)OC[C@@H]1C[C@@](O)(COc2ccc(N4C[C@H](CO)OC4=O)cc2F)CN31 [Example 3, (13S,16S)-1-ethyl-7-fluoro-16-[2-fluoro-4-((R)-5-hydroxymethyl-2-oxo-oxazolidin-3-yl)-phenoxymethyl]-16-hydroxy-4-oxo-1,4,13,15,16,17-hexahydro-12H-11-oxa-1,14-diaza-cyclopenta[a]phenanthrene-3-carboxylic acid]

MIC (S. Pneumoniae 49619; [1]): 0.25 µg/mL (≈ 0.428 µM)
SMILES: O=C(O)c1cn(C2CC2)c2c3c(c(F)cc2c1=O)N1C[C@@H](COc2ccc(N4C[C@H](CO)OC4=O)cc2F)C[C@H]1CO3 [Example 5, (13S,16S)-1-cyclopropyl-7-fluoro-16-[2-fluoro-4-((R)-5-hydroxymethyl-2-oxo-oxazolidin-3-yl)-phenoxymethyl]-4-oxo-1,4,13,15,16,17-hexahydro-12H-11-oxa-1,14-diaza-cyclopenta[a]phenanthrene-3-carboxylic acid]
